Source: patent US6204005A, “Immunoassay for toxic congeners of polychlorinated biphenyls” (priority 1995, dated 2001)

Assays:
[1] = test system: anti-hapten antibody (sera of rabbits immunized with KLH-hapten I conjugate); experiment: Inhibition ELISA with BSA-Competitor 11 coating conjugate (Methods A,B); type: binding, rabbit; settings: for I10 (mdl): Table 3, selected analytes, NR/>100 ppm, NR--No Assay Response
Procedure: A solution of the coating antigen, consisting of 100 ng of a BSA conjugate of Hapten I or Exemplified Competitor 11 above, in 50 μl of PBS (phosphate buffered saline, pH 7.4, 10 mM phosphate, 150 mM NaCl), was dispensed into each well of a 96-well microtiter plate (Dynatech Immulon-2 commercially available from Dynatech, Inc., Chantilly, Va.) and incubated at 28° C. (+/-0.5° C.) for 2 hours. The coating antigen solution was then removed from the wells and the plate was washed three times with PBS. All wash steps utilized a Cambridge Technology, Inc. Platewasher 260, commercially available from Cambridge Technology, Inc. Cambridge, Mass. The remaining active sites in the wells were blocked with a 150 μl solution of 1% BSA in PBS with 0.02% sodium azide for 2 hours at 28° C. After removal of the blocking solution the plate was washed three times with PBS. Serum stored at -20° C. was freshly thawed and diluted 100-250,000 fold with the 1% BSA in PBS/DT blocking buffer (PBS buffer containing 10% by volume dimethylformamide and 0.5% Triton X-100). This solution (50 μl/well) was then dispensed into replicate wells (3-6) on the plate, which was covered and incubated for 1 hour at room temperature (RT). After removal of the incubation solution the plate was washed three times with PBS. The labeled antibody, anti-rabbit IgG (whole molecule)--alkaline phosphatase conjugate, (Sigma No. A-8025 commercially available from Sigma Chemical Company, St. Louis, Mo.), diluted 1/500 with BSA/PBS, was added in a quantity of 50 μl/well and incubated for 1 hour at 28° C. After removal of the second antibody solution the plate was washed three times with PBS. The wells were then washed (one time) with 10 mM diethanolamine (pH 9.4) which contained 0.5 mM magnesium chloride. Substrate solution (50 μl; 10 mg p-nitrophenylphosphate in 10.0 ml of the diethanolamine/magnesium chloride) was added to each well and incubated for 30 minutes at 28° C. Sodium hydroxide (50 μl of a 0.05 N solution) was added to each of the wells to stop the reaction. The final Absorbance in each well was determined at 405 nm using a Cambridge Technologies, Inc. Model 750 Microplate Reader commercially available from Cambridge Technologies, Inc., Cambridge, Mass. The titer of the sera was determined by a Log Sera Dilution versus Absorbance plot and the EC50 value.
Inhibition ELISA followed the basic assay procedure described above with the following addition: The serum sample was diluted to its EC80 value (400-1000 fold) with the 1% BSA in PBS blocking buffer to which had been added 10% dimethylformamide, volume/volume (v/v), and 0.5% Triton® X-100 (PBS-DT). An aqueous analyte solution (e.g., Aroclor® 1248) was prepared by solution of the analyte in dimethylformamide followed by dilution to the required concentration in PBS-DT. The analyte solution was added to the antibody solution to achieve the desired concentration of analyte (typically 1 ppb-100 ppm) and the resulting solution was incubated overnight at room temperature. This solution (50 μl/well) was then dispensed into replicate wells (3-6) on the plate and the assay completed as above. The minimum detection limit (I10 ) and the I50 values were determined using a Log (Analyte Concentration in parts per billion--ppb) versus Absorbance or by converting absorbance to the B/Bo ratio where B=Sample Absorbance and Bo=Absorbance of the Blank Sample. […] This figure illustrates the significant improvement in PCB sensitivity as measured by both minimum detection limit (B/Bo=0.9) and assay range (B/Bo=0.5) on using a competitor versus a hapten as the competition reagent.
This assay format gave a minimum detection limit (I10) of approximately 0.2 ppm and an I50 of approximately 3 ppm.

[2] = test system: Hapten VII sera (polyclonal antibodies); experiment: Sera direct EIA with Hapten VII sera and competitor enzyme conjugate; type: binding, mice; settings: for Assay sensitivity versus Hapten VII enzyme conjugate based assay: in words, Table 6
Procedure: The competitors A-E and Hapten VII were conjugated to the enzyme, amino modified Horseradish Peroxidase (HRP) (horseradish peroxidase commercially available from Sigma Chemical Co. (No. P-6782), St. Louis, Mo.; amino modified per R. Hsiao and H. Royer, Archives Biochem. Biophys., 198, 379-385 (1979) to give 6-24 free amines), using the carbodiimide mediated carboxyl activation procedure described for Hapten VII in Example 24. Hapten and competitor load were determined by UV/Vis spectroscopy, also as described for Hapten VII.
(§1) The direct EIA (immoblized antibody and competitor enzyme conjugate) was performed as follows. Serum or monoclonal antibody supernatant stored at -20° C. was diluted 1,000-40,000 fold with PBS which contained 0.1% Tween-20. This solution was dispensed (500 ul) into donkey anti-mouse second antibody coated tubes (DAM Tubes commercially available from Millipore Corp., Bedford, Mass.) and incubated at room temperature overnight. The antisera solution was decanted from the tubes and the tubes washed 3 times with distilled water. Non-specific sites in the tubes were blocked with 600 ul of BSA blocking buffer (EIA Blocking Buffer commercially available from Millipore Corp., Bedford, Mass.) and incubated for 2 hours at room temperature or overnight at 4° C. The blocking buffer was decanted and the tubes allowed to dry under ambient room conditions for at least 2 hours. The assay was performed by adding 500 ul of assay diluent (1% methanol (v/v) and 0.005% Tween-20 (w/v) in distilled water) to the required number of tubes followed by 10 ul of a methanol solution of the analyte (PCB congener). After a 5 minute incubation at room temperature, the solution was decanted and the tubes rinsed 3-4 times with tap water. The horseradish peroxidase competitor or Hapten VII conjugates were diluted 1,000-60,000 fold from 2-5 mg/ml stock solutions in PBS with conjugate diluent (Enzyme Conjugate Diluent commercially available from Millipore Corp., Bedford, Mass.). The enzyme conjugate (200 ul) was added to the tubes followed by a 5 minute incubation at room temperature. The conjugate solution was decanted and the tubes rinsed 3-4 times with tap water. Enzyme substrate solution (500 ul, KPL No. 50-76-04 commercially available from KPL Laboratories, Gaithersburg, Md.) was added and the tubes were incubated at room temperature for 5-15 minutes. The enzyme reaction was stopped with the addition of 500 ul of 1N HCl. The OD of the solution was determined at 450 nm. The data was plotted using Log (Congener Concentration) versus B/Bo (B=Sample Absorbance, Bo=Sample Blank Absorbance).
The direct EIA (Method 19) was used to evaluate sera samples taken on day 120.

[3] = relative to 2,3,7,8-TCDD = 1.0; cited from earlier work
[4] = test system: Hapten VII sera (polyclonal antibodies); experiment: Sera indirect EIA with Hapten VII sera and Competitor C; type: binding, mice; settings: day 120 sera, Competitor C, FIG. 7
Procedure: The indirect EIA (immobilized competitor BSA conjugate) was performed as described by Karu, et al. (A. E. Karu, et al., J. Agric. Food Chem., 42, 301-309 (1994)).
The indirect EIA (Method 18) was used to evaluate sera samples taken on day 120.

[5] = biological target: Hapten VII derived monoclonal antibody S2B1; experiment: Monoclonal antibody direct EIA with Competitor D enzyme conjugate; type: binding; settings: for estimated I50: FIG. 9, 4-parameter logistic fits; for I50: FIG. 9, monoclonal antibody S2B1, text value
Procedure: as §1
Monoclonal antibodies were derived essentially as described by Karu, et al. (A. E. Karu, et al., J. Agric. Food Chem., 42, 301-309 (1994)) using Hapten VII BSA conjugate and Competitor C BSA conjugate for the primary screen.
FIG. 9 illustrates the specificity of a direct EIA based on the Hapten VII derived monoclonal antibody S2B1 and Competitor D enzyme conjugate. Both 3,3',4,4'-tetrachlorobiphenyl and 3,3',4,4',5-pentachlorobiphenyl give ca. 1 ppb I50 values. Cross-reactions of a number of congeners which are significant Aroclor(R) consitutents are <0.001%.

[6] = Table 7, Hapten VII sera and Competitor D direct EIA
[7] = direct EIA, day 120 sera, Competitor C, FIG. 8
[8] = Table 6, I50 of analyte 3,3',4,4'-tetrachlorobiphenyl with the listed competitor, Hapten VII sera
[9] = BSA-Competitor 11 coating conjugate, FIG. 1 Plot 3 (analyte Aroclor 1248)

With `Clc1ccc(Cl)c(Cl)c1` [1,2,4-trichlorobenzene] the “I10 (mdl)” value [1] was over 100 ppm.

In the case of `Clc1ccccc1Cl` [1,2-dichlorobenzene], the “I10 (mdl)” value [1] is reported as over 100 ppm.

In the case of `Clc1cccc(Cl)c1` [1,3-dichlorobenzene], the “I10 (mdl)” value [1] is reported as over 100 ppm.

For `Clc1ccc(Cl)cc1` [1,4-dichlorobenzene], the “I10 (mdl)” value [1] was over 100 ppm.

In the case of `Clc1cc(Cl)c(-c2cc(Cl)c(Cl)cc2Cl)cc1Cl` [2,2',4,4',5,5'-hexachlorobiphenyl], the I50 [2, 6] is given as > 20,000 ppb, the “cross reaction relative to 3,3',4,4'-tetrachlorobiphenyl” value [2, 7] is given as under 0.05% and the TEF [3] is given as “less than 0.00001”. The “cross-reaction relative to 3,3',4,4'-tetrachlorobiphenyl” value [4] was under 0.0%.

In the case of `Clc1ccc(Cl)c(-c2cc(Cl)ccc2Cl)c1` [2,2',5,5'-tetrachloro], the I50 [2, 6] is listed as > 20,000 ppb and the TEF [3] is listed as “less than 0.00001”.

For `O=C(O)COc1ccc(Cl)cc1Cl` [2,4-dichlorophenoxyacetic acid], the “I10 (mdl)” value [1] was over 100 ppm.

For `Oc1cc(Cl)ccc1Cl` [2,5-dichlorophenol], the “I10 (mdl)” value [1] was over 100 ppm.

For `COc1cccc(Cl)c1` [3-chloroanisole], the “I10 (mdl)” value [1] was over 100 ppm.

For `Oc1cccc(Cl)c1` [3-chlorophenol], the “I10 (mdl)” value [1] was over 100 ppm.

With `Clc1ccc(-c2ccc(Cl)cc2)cc1` [4,4'-dichloro] the I50 [2, 6] was 4,300 ppb.

With `Clc1ccc(-c2ccc(Cl)c(Cl)c2)cc1Cl` [BZ No. 77, 3,3',4,4'-tetrachlorobiphenyl] the I50 [2, 6] was 3 ppb, the I50 [2, 7] was 1.4 ppb and the “estimated I50” value [5] was 0.9 ppb. For the same compound, the I50 [5] was “ca. 1 ppb”, the TEF [3] was 0.01 and the I50 [4] was under 10 ppb.

For `Clc1ccc(-c2cc(Cl)c(Cl)c(Cl)c2)cc1Cl` [BZ No. 126, 3,3',4,4',5-pentachlorobiphenyl], the “estimated I50” value [5] is given as 1.2 ppb, the I50 [5] is given as “ca. 1 ppb” and the TEF [3] is given as 0.1.

With `O=C(O)CCCCc1cc(Cl)ccc1Cl` [Competitor 11, 5-(2,5-Dichlorophenyl)pentanoic acid] the I50 [2, 8] was 6-8 ppb, the “Assay sensitivity versus Hapten VII enzyme conjugate based assay” value [2] was “significantly more sensitive” and the I50 [1, 9] was “approximately 3 ppm”. The “minimum detection limit (I10)” value [1, 9] was “approximately 0.2 ppm”.

With `O=C(O)CCCOc1ccc(Cl)c(Cl)c1` [Competitor B] the I50 [2, 8] was 3.5 ppb and the “Assay sensitivity versus Hapten VII enzyme conjugate based assay” value [2] was “significantly more sensitive”.

In the case of `O=C(O)CCCSc1cc(Cl)ccc1Cl` [Competitor C], the I50 [2, 8] is reported as 1.5 ppb and the “Assay sensitivity versus Hapten VII enzyme conjugate based assay” value [2] is reported as “significantly more sensitive”.

With `O=C(O)CCCC(=O)c1ccc(Cl)c(Cl)c1` [Competitor D] the I50 [2, 8] was 3 ppb and the “Assay sensitivity versus Hapten VII enzyme conjugate based assay” value [2] was “significantly more sensitive”.

In the case of `O=C(O)CCCCCOc1ccc(-c2ccc(Cl)c(Cl)c2)cc1Cl` [Hapten VII, 6-(3,3',4'-Trichlorobiphenyloxy)-4-yl hexanoic acid], the I50 [2, 8] is reported as 30-40 ppb.
